In the NIST ThermoML archive (doi:10.1007/s10765-006-0063-0):

Columns and labels:
[1] = xn = mol fraction of the nth substance listed; settings: 101 kPa, Liquid, Sing-around technique in a fixed-path interferometer
[2] = 101.33 kPa, Liquid; for speed of sound: Sing-around technique in a fixed-path interferometer

C1CCCC1 [cyclopentane] + C1COCCO1
[1]
Settings	speed of sound [m/s]
283.15 K, x2 = 0.0516	1280.7
283.15 K, x2 = 0.095	1279.4
283.15 K, x2 = 0.1944	1280.5
283.15 K, x2 = 0.2987	1286
283.15 K, x2 = 0.3973	1294.2
283.15 K, x2 = 0.499	1305.8
283.15 K, x2 = 0.6003	1320.5
283.15 K, x2 = 0.7063	1339.6
283.15 K, x2 = 0.8072	1361
283.15 K, x2 = 0.9076	1385.1
283.15 K, x2 = 0.9528	1397
298.15 K, x2 = 0.0488	1204.5
298.15 K, x2 = 0.0945	1203.8
298.15 K, x2 = 0.1818	1205.5
298.15 K, x2 = 0.2983	1211.9
298.15 K, x2 = 0.3959	1221.4
298.15 K, x2 = 0.4962	1234.1
298.15 K, x2 = 0.6067	1251.5
298.15 K, x2 = 0.7034	1269.8
298.15 K, x2 = 0.811	1293.3
298.15 K, x2 = 0.9025	1316.4
298.15 K, x2 = 0.9506	1329.6
313.15 K, x2 = 0.0449	1128.5
313.15 K, x2 = 0.094	1128.3
313.15 K, x2 = 0.195	1131.3
313.15 K, x2 = 0.2962	1138.6
313.15 K, x2 = 0.3969	1149.5
313.15 K, x2 = 0.4983	1163.6
313.15 K, x2 = 0.5994	1180.8
313.15 K, x2 = 0.6987	1200.2
313.15 K, x2 = 0.8026	1223.8
313.15 K, x2 = 0.9066	1250.8
313.15 K, x2 = 0.9482	1263

C1COCCO1 [1,4-dioxane]
[2]
Settings	mass density [kg/m3]	speed of sound [m/s]
283.15 K	1045.2	1409.6
298.15 K	1027.9	1343.6
313.15 K	1011	1278.8

C1COCCO1 [1,4-dioxane] + C1CCCCC1
[1]
Settings	speed of sound [m/s]
283.15 K, x1 = 0.0502	1323.1
283.15 K, x1 = 0.0999	1319.7
283.15 K, x1 = 0.1953	1315.8
283.15 K, x1 = 0.2899	1315.6
283.15 K, x1 = 0.3996	1318.4
283.15 K, x1 = 0.5017	1324.5
283.15 K, x1 = 0.6007	1333.5
283.15 K, x1 = 0.699	1346.1
283.15 K, x1 = 0.7956	1362.2
283.15 K, x1 = 0.8994	1383.9
283.15 K, x1 = 0.9446	1394.9
298.15 K, x1 = 0.0535	1250
298.15 K, x1 = 0.1053	1246.9
298.15 K, x1 = 0.1998	1244.4
298.15 K, x1 = 0.3003	1245
298.15 K, x1 = 0.4026	1248.6
298.15 K, x1 = 0.5006	1255.2
298.15 K, x1 = 0.5971	1264.5
298.15 K, x1 = 0.7028	1278.6
298.15 K, x1 = 0.8089	1296.9
298.15 K, x1 = 0.9038	1318.4
298.15 K, x1 = 0.9485	1330.2
313.15 K, x1 = 0.0497	1177.3
313.15 K, x1 = 0.102	1174.3
313.15 K, x1 = 0.1944	1172.4
313.15 K, x1 = 0.2926	1173.7
313.15 K, x1 = 0.3973	1178.3
313.15 K, x1 = 0.4969	1185.8
313.15 K, x1 = 0.5992	1196.7
313.15 K, x1 = 0.6988	1211
313.15 K, x1 = 0.7966	1229
313.15 K, x1 = 0.8972	1251.3
313.15 K, x1 = 0.9505	1264.9

C1CCCC1 [cyclopentane] + C1COCO1
[1]
Settings	speed of sound [m/s]
283.15 K, x2 = 0.101	1277.3
283.15 K, x2 = 0.2019	1275.8
283.15 K, x2 = 0.3024	1278.6
283.15 K, x2 = 0.4023	1285
283.15 K, x2 = 0.5028	1295.3
283.15 K, x2 = 0.6	1307.9
283.15 K, x2 = 0.6995	1325.7
283.15 K, x2 = 0.796	1347.3
283.15 K, x2 = 0.8999	1375.7
298.15 K, x2 = 0.0998	1201.4
298.15 K, x2 = 0.1993	1200.8
298.15 K, x2 = 0.3005	1204.5
298.15 K, x2 = 0.4041	1212
298.15 K, x2 = 0.5024	1222.7
298.15 K, x2 = 0.6002	1236.4
298.15 K, x2 = 0.7004	1255.5
298.15 K, x2 = 0.7988	1278.8
298.15 K, x2 = 0.8992	1307.4
313.15 K, x2 = 0.1028	1125.3
313.15 K, x2 = 0.2032	1125.9
313.15 K, x2 = 0.3014	1130.2
313.15 K, x2 = 0.403	1138.5
313.15 K, x2 = 0.5008	1150
313.15 K, x2 = 0.6008	1165.5
313.15 K, x2 = 0.6991	1184.8
313.15 K, x2 = 0.7991	1209
313.15 K, x2 = 0.8987	1237.8

c1ccccc1 [benzene]
[2]
Settings	mass density [kg/m3]	speed of sound [m/s]
283.15 K	889.9	1368.7
298.15 K	873.5	1298.3
313.15 K	857.5	1229.5

C1CCCCC1 [cyclohexane]
[2]
Settings	mass density [kg/m3]	speed of sound [m/s]
283.15 K	788	1327.8
298.15 K	773.7	1254.4
313.15 K	759.6	1181.1

C1COCO1 [1,3-dioxolane] + c1ccccc1
[1]
Settings	speed of sound [m/s]
283.15 K, x1 = 0.1037	1373.9
283.15 K, x1 = 0.2005	1377.2
283.15 K, x1 = 0.2977	1380.5
283.15 K, x1 = 0.4007	1383.5
283.15 K, x1 = 0.4995	1386.6
283.15 K, x1 = 0.5967	1389.7
283.15 K, x1 = 0.6984	1393.7
283.15 K, x1 = 0.7942	1397.3
283.15 K, x1 = 0.8973	1401.7
298.15 K, x1 = 0.1	1303.1
298.15 K, x1 = 0.2022	1306.8
298.15 K, x1 = 0.3002	1310.1
298.15 K, x1 = 0.4021	1313.6
298.15 K, x1 = 0.4957	1317
298.15 K, x1 = 0.5968	1320.7
298.15 K, x1 = 0.6965	1325.1
298.15 K, x1 = 0.7985	1329.4
298.15 K, x1 = 0.8973	1334.2
313.15 K, x1 = 0.1006	1233.5
313.15 K, x1 = 0.2	1237.2
313.15 K, x1 = 0.2985	1240.9
313.15 K, x1 = 0.4136	1245.1
313.15 K, x1 = 0.4928	1248.1
313.15 K, x1 = 0.5953	1252
313.15 K, x1 = 0.6979	1256.3
313.15 K, x1 = 0.7968	1261.2
313.15 K, x1 = 0.8979	1266.3

C1CCCC1 [cyclopentane]
[2]
Settings	mass density [kg/m3]	speed of sound [m/s]
283.15 K	754.9	1283.5
298.15 K	739.7	1206.6
313.15 K	724.7	1129.9

C1COCO1 [1,3-dioxolane]
[2]
Settings	mass density [kg/m3]	speed of sound [m/s]
283.15 K	1077.1	1406.3
298.15 K	1058.8	1339.9
313.15 K	1040.2	1271.6

C1COCO1 [1,3-dioxolane] + C1CCCCC1
[1]
Settings	speed of sound [m/s]
283.15 K, x1 = 0.1044	1322
283.15 K, x1 = 0.2011	1317.6
283.15 K, x1 = 0.3005	1315.4
283.15 K, x1 = 0.4009	1316
283.15 K, x1 = 0.4998	1319.7
283.15 K, x1 = 0.602	1327.3
283.15 K, x1 = 0.7002	1339
283.15 K, x1 = 0.7989	1355.7
283.15 K, x1 = 0.8989	1377.7
298.15 K, x1 = 0.0998	1245.1
298.15 K, x1 = 0.2014	1240
298.15 K, x1 = 0.3019	1238.7
298.15 K, x1 = 0.4043	1240.5
298.15 K, x1 = 0.4993	1245.3
298.15 K, x1 = 0.6028	1254.2
298.15 K, x1 = 0.6998	1266.9
298.15 K, x1 = 0.8003	1284.9
298.15 K, x1 = 0.8992	1308.9
313.15 K, x1 = 0.1213	1172.5
313.15 K, x1 = 0.2006	1167.6
313.15 K, x1 = 0.2996	1166.6
313.15 K, x1 = 0.3996	1168.8
313.15 K, x1 = 0.5009	1174.2
313.15 K, x1 = 0.6	1183.2
313.15 K, x1 = 0.6979	1196.3
313.15 K, x1 = 0.7987	1215.2
313.15 K, x1 = 0.8991	1240

C1COCCO1 [1,4-dioxane] + c1ccccc1
[1]
Settings	speed of sound [m/s]
283.15 K, x1 = 0.0521	1370.8
283.15 K, x1 = 0.0942	1372.6
283.15 K, x1 = 0.1987	1376.5
283.15 K, x1 = 0.2956	1380.2
283.15 K, x1 = 0.3936	1383.8
283.15 K, x1 = 0.4947	1387.4
283.15 K, x1 = 0.5964	1391.1
283.15 K, x1 = 0.6956	1395.1
283.15 K, x1 = 0.7963	1399.3
283.15 K, x1 = 0.8949	1404.1
283.15 K, x1 = 0.9526	1407.1
298.15 K, x1 = 0.0516	1300.8
298.15 K, x1 = 0.0888	1302.4
298.15 K, x1 = 0.1966	1307.3
298.15 K, x1 = 0.316	1312.2
298.15 K, x1 = 0.4145	1316.3
298.15 K, x1 = 0.5004	1320
298.15 K, x1 = 0.5975	1324.1
298.15 K, x1 = 0.6932	1328.4
298.15 K, x1 = 0.7962	1333.1
298.15 K, x1 = 0.8938	1338
298.15 K, x1 = 0.9535	1341.1
313.15 K, x1 = 0.0568	1232.1
313.15 K, x1 = 0.0913	1233.6
313.15 K, x1 = 0.2021	1239.2
313.15 K, x1 = 0.2963	1243.7
313.15 K, x1 = 0.3981	1248.6
313.15 K, x1 = 0.4975	1253.1
313.15 K, x1 = 0.5981	1257.9
313.15 K, x1 = 0.6972	1262.7
313.15 K, x1 = 0.7941	1267.5
313.15 K, x1 = 0.9034	1273.3
313.15 K, x1 = 0.9424	1275.5
